Values joined by “and” are separate entries in the source; they are usually repeats but may differ in a detail not shown here. Identical values can stand only once. “Also recorded” adds a separate entry of the source.
Key:
[1] = tested on: medial ganglionic eminence (MGE)-derived neural progenitors; experiment: HD-DoE stage 4, 12-factor experiment: SOX6 expression; type: cell-based, human; settings: for impact on expression of SOX6: dynamic profile, in words; for factor contribution, expression of SOX6: positive impact, model optimized for maximal SOX6 at 1442
Description: These effectors are small chemical compounds or proteins. They are commonly used during the differentiation of stem cells to specific cell linage. The choice of the effectors was based on the current literature on forebrain neural induction and differentiation of neural progenitor cells to mature neurons.
To evaluate the effectors on SST differentiation, experiments with 8 or 12 factors were designed to assess the responses of cells to 48 or more combinations of effectors in a range of concentrations. To analyze the models, we focused on expression of genes involved in development and patterning of the forebrain interneurons maturation including LHX6 (Liodis et al. (2007) J. Neurosci. 27:3078-3089; Yuan et al. (2018) Elife 7: e37382), SOX6 (Azim et al. (2009) Nature Neurosci. 12:1238-1247; Batista-Brito et al. (2009) Neuron 63:466-481), DLX5 (de Lombares et al. (2019) Aging (Albany NY) 11:6638; Wang et al. (2010) J. Neurosci. 30:5334-5345) and ASCL1 (Barretto et al. (2020) J. Neurosci. Meth. 334:108548; Shi et al. (2016) J. Biol. Chem. 291:13560-13570). At later stages we focused on interneuron maturation genes including somatostatin and absence of Parvalbumin (Horn and Nicoll (2018) Proc. Natl. Acad. Sci. 115:589-594). The impacts of each effector on gene expression level are defined by a parameter called factor contribution that is calculated for each effector during the modeling.
To identify the recipe for differentiation at stage 4, at least 48 different combinations of effectors were robotically prepared by the Design-of-Experiments compression through D-optimality. The effector combinations were prepared in a basal media and were subsequently added to the cells, which were then allowed to differentiate. Three days later, RNA extraction was performed, and gene expression levels were examined using quantitative PCR analysis. The data was normalized and modeled using partial least squares regression analysis to the effector design, resulting in the generation of gene-specific models, which after model tuning for maximal predictive power, provided explanation of the effectors ability to control the expression of individual genes, combinatorically, and individually. Solutions within the tested space could then be explored to address desirability.
IGF-1 activates the IGF-1 pathway, promotes neuron axonal growth, and establishes the synapse of interneurons. GDNF is the […] and can activate the GDNF pathway. MK2206 is an AKT inhibitor and can inhibit cell proliferation and promote neuronal maturation. PD173074 and BLU-554 are FGFR inhibitors. The FGF pathway is required for the maintenance of neural progenitor cells. Inhibition of the FGFR pathway promotes neural maturation. GSI-XX is a notch pathway inhibitor. Notch pathway inhibits neural progenitor cell differentiation. Inhibition of the Notch pathway promotes neural differentiation.
To find the set of factors that have the potential to optimize SOX6 in this experiment, a new assessment was done through dynamic profile analysis with focus on maximal expression of SOX6.

[2] = tested on: stage 2 neural stem cells; experiment: HD-DoE stage 3 experiment: ASCL1, LHX6, DLX1 expression; type: cell-based, human
Protocol: To further guide the cells to medial ganglionic eminence progenitor fate, an additional HD-DoE experiment was performed for 3 days on cells that were treated with stage 1 and stage 2 media for total of 6 days prior to start of the experiment. This experiment included 13 effectors, LDN193189, A8301, GNF5837, AZD3147, GSI-XX, Takinib, PD0325901, PD173074, BLU9931, IGF-1, MHY1485, Purmorphamine and Prostratin. In this model, we focused on maximum expression of genes expressed in neuronal progenitor cells in medial ganglionic eminence (MGE) region including ASCL1, LHX6 and DLX1 (Silberberg et al. (2016) Neuron 92:59-74). When the model was optimized for maximum expression of ASCL1 at 1700, A8301, GSI-XX, Purmorphamine and Takinib, which is an inhibitor of TAK1 pathway, had the highest factor contributions, 18.1, 14.1, 12.7 and 10.1 respectively. […] MHY 1485 also had positive contribution however the factor was below 2 (FIG. 9).
Therefore, six effectors including A8301, GSI-XX, Takinib, GNF5837, IGF-1 and Purmorphamine were finalized as ingredients of stage 3 differentiation media. A representative recipe for Stage 3 differentiation is summarized below in Table 3.

[3] = tested on: forebrain-committed neural stem cells; experiment: HD-DoE stage 2, 12-factor experiment: NKX2-1 expression; type: cell-based, human; settings: model / dynamic profile, in words
Protocol: To further guide the differentiation of forebrain-committed neural stem cells to ventral forebrain neural stem cells at stage 2, a HD-DoE experiment was performed for 3 days after termination of stage 1 treatment. […] This 12-factor experiment included LDN193189, BMP7, PD0325901, MK2206, A8301, XAV939, CHIR99021, Purmorphamine, SANT-1, AGN193109, TTNPB and GSI-XX. […]

[4] = tested on: medial ganglionic eminence (MGE)-derived neural progenitors; experiment: Factor criticality analysis, stage 4 recipe; type: cell-based, human; settings: FIG. 27, in words
Protocol: To assess the impact of elimination of each validated factor, dynamic profile analysis was again used to compare the expression levels of genes of interest in the absence of each finalized factor while the others were present in the media.
In the stage 4 recipe, each of the five finalized factors was removed while the other four factors remained present in the media and the expression level of forebrain genes was assessed compared to the presence of all 6 factors. SOX6 expression was reported to determine the cortical interneuron-precursors cell fate (see e.g., Azim et al. (2009) Nature Neurosci. 12:1238-1247; Batista-Brito et al. (2009) Neuron 63:466-481). Therefore, optimization of SOX6 expression was focused on at this stage.

[5] = tested on: stage 2 neural stem cells; experiment: Factor criticality analysis, stage 3 recipe; type: cell-based, human; settings: other five stage 3 factors present
Protocol: (§1) To assess the impact of the elimination of each validated factor, dynamic profile analysis was used and compared the expression level of genes of interest in absence of each finalized factor while others are present.
In the stage 3 recipe, each of the six finalized factors were removed while the other five factors remained present and the expression levels of ASCL1, DLX1 and LHX6 were assessed compared to the presence of all six factors. […] As expected, in the absence of IGF-1, the value of DLX1 increases to 410, however, ASCL1 and LHX6 decreased to 1390 and 220, respectively.

[6] = tested on: human pluripotent stem cells; experiment: HD-DoE stage 1, additional experiment: FEZF2 expression; type: cell-based
Protocol: To identify the recipe for stage 1 of differentiation, 96 different combinations of effectors generated using Design-of-Experiments compression through D-optimality were robotically prepared. The effector combinations were prepared in a basal media and were subsequently added to the cells, which were then allowed to differentiate. Three days later RNA extraction was performed, and gene expression was obtained using quantitative PCR analysis. The data were normalized and modeled using partial least squares regression analysis to the effector design, resulting in the generation of gene-specific models, which after model tuning for maximal Q2 predictive power, provided explanation of the effectors ability to control the expression of individual genes, combinatorically, and individually. Solutions within the tested space could then be explored to address desirability. To further enhance the conditions for forebrain differentiation from pluripotency, an additional HD-DoE experiment was performed. Additional gene regulatory models were obtained that were used for preparation of the differentiation protocol. The factors in this experiment included LDN193189, PD173074, BLU9931, Purmorphamine, SC79, MK2206, ZM336372, PD0325901, CHIR99021, XAV939, UCLA-GP130, Tofacitinib and GO6983. […] Dynamic profile analysis was also used to assess the interaction between the effectors.

[7] = tested on: forebrain-committed neural progenitor cells; experiment: HD-DoE stage 5, 8-factor experiment (JQ1, Indolactam-V ...): Somatostatin expression; type: cell-based, human
Protocol: To further guide the differentiation of forebrain-committed neural progenitor cells to somatostatin interneuron cells at stage 5, HD-DoE experiments were performed for 3 days after termination of stage 4 treatment. At this time, we focused on maximum expression of SST that was expressed in Somatostatin (+) interneurons and minimum expression of Parvalbumin that is another type of interneurons. This 8-factor experiment included JQ1, (−)-Indolactam-V, Oleic acid, BDNF, IGF-1, 2-phospho-L-Ascorbic acid, Albumax, MK2206. When the model was maximized for expression of Somatostatin, six effectors were identified that could increase its expression levels, including (−)-Indolactam-V, Oleic acid, BDNF, 2-phospho-L-ascorbic acid, Albumax, and MK2206, as shown in FIG. 21. Using dynamic profile analysis, the results of which are shown in FIG. 22, the model was modified to achieve the maximum expression level of Somatostatin and therefore (−)-Indolactam-V, BDNF, and 2-phospho-L-ascorbic acid were included while JQ-1, Oleic acid, Albumax and MK2206 were excluded. Considering the model at different optimization settings for maximum differentiation of cells toward ventral forebrain, the recipe for stage 5 of differentiation included (−)-Indolactam-V, BDNF, IGF-1, and 2-phospho-L-ascorbic acid from this HD-Doe experiment.

[8] = tested on: human pluripotent stem cells; experiment: Factor criticality analysis, stage 1 recipe (dynamic profile analysis); type: cell-based; settings: 3500 with all factors; FIG. 12
Description: as §1, with “present. […] When Purmorphamine was removed, levels of FEZF2 and SIX3 were decreased to 1000 and below 3000, while levels of OTX2 increased to 6500.” for “present.”

[9] = tested on: forebrain-committed neural progenitor cells; experiment: HD-DoE stage 5, 8-factor experiment (GDNF, BDNF, NT-3 ...): Somatostatin expression; type: cell-based, human; settings: FIG. 24 dynamic profile, in words
Protocol: To investigate the effects of other factors on differentiation of forebrain-committed neural progenitor cells to Somatostatin interneuron cells, an additional HD-DoE experiment was performed for 3 days on cells that were treated with stage 1 to stage 4 medium for a total of 12 days prior to the new experiment. This experiment, the results of which are shown in FIG. 23, included eight effectors, GDNF, BDNF, NT-3, ß-NGF, Linoleic acid, 5-Cholesten-3β, LIF and TGF-β3. In this model, we focused on maximum expression of Somatostatin gene expressed in Somatostatin (+) interneurons (Urban-Ciecko and Barth (2016) Nature Reviews Neurosci. 17:401-409). When the model was optimized for maximum expression of Somatostatin, BDNF, NT-3, beta-NGF and Linoleic acid had the highest factor contributions, 25.7, 2, 19.9, 23.5, respectively.
Therefore, the latter were excluded in the recipe.

Row | Molecule | impact on expression of SOX6 [1] | factor contribution, expression of SOX6 [1] | impact on expression of ASCL1 ([2]; dynamic profile, in words) | impact on expression of LHX6 ([2]; dynamic profile, in words) | factor contribution, expression of ASCL1 ([2]; positive, model optimized for maximum ASCL1 at 1700) | impact on expression of NKX2-1 [3] | effect on PVALB expression [4] | effect on SOX6 expression [4] | effect on Somatostatin expression [4] | expression level of DLX1 when the factor is removed ([5]; 220 with all six factors) | expression level of LHX6 when the factor is removed ([5]; 240 with all six factors) | expression level of ASCL1 when the factor is removed ([5]; 1650 with all six factors) | impact on expression of FEZF2 ([6]; dynamic profile, in words) | factor contribution, expression of FEZF2 ([6]; positive impact, additional stage 1 experiment optimized for FEZF2) | impact on expression of Somatostatin ([7]; FIG. 21/22, in words) | factor contribution, expression of Somatostatin ([7]; positive, 8-factor experiment of FIG. 21) | expression level of FEZF2 when the factor is removed [8] | impact on expression of Somatostatin [9]
1 | C[C@H](NC(=O)Cc1cc(F)cc(F)c1)C(=O)N[C@@H]1C(=O)N(C)c2ccccc2-c2ccccc21 [GSI-XX] | positive impact | 3.6 | Positive impact | Positive impact | 14.1 and 14 | increase | minimal effect | increase | contribute | 50 | 140 | 1200 | – | – | – | – | – | –
2 | NC1(c2ccc(-c3nc4ccn5c(=O)[nH]nc5c4cc3-c3ccccc3)cc2)CCC1 [MK2206] | positive impact | 7.2 | – | – | – | increase | decrease | increase | – | – | – | – | positive impact | 11 and 12.2 | increase; also recorded: positive impact | 4.2 | 2700 | –
3 | GDNF: Glial cell line-derived neurotrophic factor; can activate the GDNF pathway (protein, UniProt P39905 78-211, looked up) Glial cell line-derived …: SPDKQMAVLPRRERNRQAAAANPENSRGKGRRGQRGKNRGCVLTAIHLNVTDLGLGYETKEELIFRYCSGSCDAAETTYDKILKNLSRNRRLVSDKVGQACCRPIAFDDDLSFLDDNLVYHILRKHSAKRCGCI | positive impact | 21 | – | – | – | – | – | increase | – | – | – | – | – | – | – | – | – | negative impact
